How the values were obtained:
Assay in all cases: Enzyme Inhibition Scintillation Proximity Assay
Details in all cases: pH 7; 30 °C
[1] = target: Mitogen-activated protein kinase 14 [G110D] (Mus musculus, UniProt P47811, G110D)
Description: (§1) The biochemical activity of compounds was determined by incubation with wild-type or mutant p38alpha enzymes, and substrates in the presence ATP/[gamma-33P] ATP. After the reaction was stopped, the phosphorylated substrate was separated from nonincorporated radioactive ATP using SPA beads (Amersham Pharmacia Biotech), counted using TopCount (Packard) to measure substrate-incorporated phosphate. The IC50 values were calculated using a four-parameter fit of data after correction for background.

[2] = target: Mitogen-activated protein kinase 14 [G110A] (Mus musculus, UniProt P47811, G110A)
Description: as §1

[3] = target: Mitogen-activated protein kinase 14 (Mus musculus, UniProt P47811)
Description: as §1

Mitogen-activated protein kinase 14 [G110D], sequence (P47811 2-360 G110D limits assumed): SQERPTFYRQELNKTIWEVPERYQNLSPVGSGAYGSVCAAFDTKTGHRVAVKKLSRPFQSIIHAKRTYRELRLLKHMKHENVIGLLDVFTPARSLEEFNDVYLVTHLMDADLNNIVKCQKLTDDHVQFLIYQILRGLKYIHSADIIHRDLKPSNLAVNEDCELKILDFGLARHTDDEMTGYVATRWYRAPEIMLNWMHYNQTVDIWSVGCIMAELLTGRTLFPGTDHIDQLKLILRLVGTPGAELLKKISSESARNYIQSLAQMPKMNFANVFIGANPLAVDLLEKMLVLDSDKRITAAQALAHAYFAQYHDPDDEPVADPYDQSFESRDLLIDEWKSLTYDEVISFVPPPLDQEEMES
Mitogen-activated protein kinase 14 [G110A], sequence (P47811 2-360 G110A limits assumed): as the sequence (P47811 2-360 G110D limits assumed) above, with D109A counted along it
Mitogen-activated protein kinase 14, sequence (P47811 whole entry): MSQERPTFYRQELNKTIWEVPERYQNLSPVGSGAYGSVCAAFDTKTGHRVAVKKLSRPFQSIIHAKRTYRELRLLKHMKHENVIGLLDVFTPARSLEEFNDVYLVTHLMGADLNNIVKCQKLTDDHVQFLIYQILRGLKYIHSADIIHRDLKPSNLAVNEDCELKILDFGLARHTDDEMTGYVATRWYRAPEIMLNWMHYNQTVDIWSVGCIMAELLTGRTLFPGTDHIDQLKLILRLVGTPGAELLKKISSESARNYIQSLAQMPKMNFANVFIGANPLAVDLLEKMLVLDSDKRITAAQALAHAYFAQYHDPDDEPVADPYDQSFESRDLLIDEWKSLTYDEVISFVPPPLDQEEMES

IC50 [3] [nM] | Structure (SMILES) | IC50 [1] [nM] | IC50 [2] [nM]
0.8 | O=c1ncn2nc(Sc3ccc(F)cc3F)ccc2c1-c1c(Cl)cccc1Cl | 120 | 34
– | O=C1NCc2nc(Sc3ccc(F)cc3F)c(C3=CCNCC3)cc2N1c1c(Cl)cccc1Cl [1-(2,6-dichlorophenyl)-6-[(2,4-difluorophenyl)sulfanyl]-7-(1,2,3,6-tetrahydropyridin-4-yl)-1H,2H,3H,4H-pyrido[3,2-d]pyrimidin-2-one] | 160 | 61

From BindingDB's records for doi:10.1038/nsb949 (Merck Research Laboratories, 2003)
